Measurements: paper PMC12628652, “A Validated UPLC‐MS/MS Method for Monitoring Temozolomide and Perillyl Alcohol Metabolites in Biological Matrices: Insights From a Preclinical Pharmacokinetic Study” (Biomedical Chromatography, 2025)

Assay: Stability of analytes in rat plasma and tissue matrices (freeze-thaw, bench-top, autosampler)
Type: physicochemical
Details: for Stability (ER %) Autosampler: 10°C for 24 h; for Stability (ER %) Bench-top: room temperature for 6 h; for Stability (ER %) Freeze/thaw: three freeze–thaw cycles over 24-h intervals
Protocol: QC samples were prepared by spiking blank rat plasma with PA, AIC, and TMZ at three concentration levels: 30, 80, and 200 ng/mL. Internal standards (IS1 and IS2) were added to each sample at a final concentration of 100 ng/mL. Whole blood was obtained from untreated anesthetized rats that were euthanized as part of the study protocol. Blood samples were collected into heparinized tubes and centrifuged at 3500 rpm for 10 min at 20°C to separate plasma. Organs including the brain, lungs, kidneys, spleen, and liver were promptly excised and homogenized using a Marconi mechanical tissue homogenizer (5 mm probe) in phosphate‐buffered saline (PBS, pH 7.4) at a 1:5 (w/v) tissue‐to‐buffer ratio.
For each matrix sample, 50 μL of homogenate or plasma was mixed with 50 μL of internal standard (IS) solution (100 ng/mL), followed by the addition of the respective working solution to reach the target analyte concentration. The volume was adjusted to 1 mL using an appropriate solvent mixture. Samples were centrifuged again at 3500 rpm for 10 min at 4°C. The resulting supernatants were filtered through 0.22 μm membrane filters prior to chromatographic analysis. All calibration standards and QC samples were prepared freshly on the day of analysis to minimize analyte degradation.
The stability of PA, AIC, and TMZ in rat plasma was assessed under the following conditions using low, medium, and high QC levels: (1) Freeze–thaw stability: Three freeze–thaw cycles over 24‐h intervals; (2) Bench‐top stability: Storage at room temperature for 6 h; (3) Autosampler stability: Storage at 10°C for 24 h. Analytes were considered stable if the relative error (RE%) remained within ±15% (Tiwari and Tiwari [2010]).

[1] = rat brain homogenate, 200 ng/mL
[2] = rat kidney homogenate, 30 ng/mL
[3] = rat kidney homogenate, 80 ng/mL
[4] = rat kidney homogenate, 200 ng/mL
[5] = rat liver homogenate, 200 ng/mL
[6] = rat spleen homogenate, 30 ng/mL
[7] = rat spleen homogenate, 80 ng/mL
[8] = rat spleen homogenate, 200 ng/mL

Which results are given for `NC(=O)c1[nH]cnc1N` [AIC, 5‐aminoimidazole‐4‐carboxamide]?
Stability (ER %) Autosampler (rat brain homogenate, 30 ng/mL): 2.04%; Stability (ER %) Bench-top (rat brain homogenate, 30 ng/mL): 7.13%; Stability (ER %) Freeze/thaw (rat brain homogenate, 30 ng/mL): 8.55%; Stability (ER %) Autosampler (rat brain homogenate, 80 ng/mL): 4.29%; Stability (ER %) Bench-top (rat brain homogenate, 80 ng/mL): 8.22%; Stability (ER %) Freeze/thaw (rat brain homogenate, 80 ng/mL): 1.79%; Stability (ER %) Autosampler [1]: 4.57%; Stability (ER %) Bench-top [1]: 9.26%; Stability (ER %) Freeze/thaw [1]: 6.76%; Stability (ER %) Autosampler [2]: 4.28%; Stability (ER %) Bench-top [2]: 2.11%; Stability (ER %) Freeze/thaw [2]: 1.29%; Stability (ER %) Autosampler [3]: 5.42%; Stability (ER %) Bench-top [3]: 8.94%; Stability (ER %) Freeze/thaw [3]: 8.45%; Stability (ER %) Autosampler [4]: 5.94%; Stability (ER %) Bench-top [4]: 8.76%; Stability (ER %) Freeze/thaw [4]: 6.46%; Stability (ER %) Autosampler (rat liver homogenate, 30 ng/mL): 4.35%; Stability (ER %) Bench-top (rat liver homogenate, 30 ng/mL): 9.13%; Stability (ER %) Freeze/thaw (rat liver homogenate, 30 ng/mL): 1.67%; Stability (ER %) Autosampler (rat liver homogenate, 80 ng/mL): 1.74%; Stability (ER %) Bench-top (rat liver homogenate, 80 ng/mL): 3.28%; Stability (ER %) Freeze/thaw (rat liver homogenate, 80 ng/mL): 9.53%; Stability (ER %) Autosampler [5]: 2.34%; Stability (ER %) Bench-top [5]: 8.71%; Stability (ER %) Freeze/thaw [5]: 7.67%; Stability (ER %) Autosampler (rat lung homogenate, 30 ng/mL): 2.22%; Stability (ER %) Bench-top (rat lung homogenate, 30 ng/mL): 7.93%; Stability (ER %) Freeze/thaw (rat lung homogenate, 30 ng/mL): 5.74%; Stability (ER %) Autosampler (rat lung homogenate, 80 ng/mL): 2.84%; Stability (ER %) Bench-top (rat lung homogenate, 80 ng/mL): 8.37%; Stability (ER %) Freeze/thaw (rat lung homogenate, 80 ng/mL): 1.04%; Stability (ER %) Autosampler (rat lung homogenate, 200 ng/mL): 3.33%; Stability (ER %) Bench-top (rat lung homogenate, 200 ng/mL): 8.49%; Stability (ER %) Freeze/thaw (rat lung homogenate, 200 ng/mL): 6.67%; Stability (ER %) Autosampler (rat plasma, 30 ng/mL): 12.36%; Stability (ER %) Bench-top (rat plasma, 30 ng/mL): 6.77%; Stability (ER %) Freeze/thaw (rat plasma, 30 ng/mL): 10.24%; Stability (ER %) Autosampler (rat plasma, 80 ng/mL): 13.46%; Stability (ER %) Bench-top (rat plasma, 80 ng/mL): 10.93%; Stability (ER %) Freeze/thaw (rat plasma, 80 ng/mL): 5.34%; Stability (ER %) Autosampler (rat plasma, 200 ng/mL): 3.48%; Stability (ER %) Bench-top (rat plasma, 200 ng/mL): 9.03%; Stability (ER %) Freeze/thaw (rat plasma, 200 ng/mL): 1.04%; Stability (ER %) Autosampler [6]: 4.01%; Stability (ER %) Bench-top [6]: 1.42%; Stability (ER %) Freeze/thaw [6]: 8.36%; Stability (ER %) Autosampler [7]: 4.98%; Stability (ER %) Bench-top [7]: 3.74%; Stability (ER %) Freeze/thaw [7]: 4.43%; Stability (ER %) Autosampler [8]: 3.13%; Stability (ER %) Bench-top [8]: 1.52%; Stability (ER %) Freeze/thaw [8]: 1.32%

What does the source list for `C=C(C)[C@@H]1CC=C(C(=O)O)CC1` [PA, perillic acid]?
Stability (ER %) Autosampler (rat brain homogenate, 30 ng/mL): 2.95%; Stability (ER %) Bench-top (rat brain homogenate, 30 ng/mL): 1.28%; Stability (ER %) Freeze/thaw (rat brain homogenate, 30 ng/mL): 1.93%; Stability (ER %) Autosampler (rat brain homogenate, 80 ng/mL): 2.37%; Stability (ER %) Bench-top (rat brain homogenate, 80 ng/mL): 10.03%; Stability (ER %) Freeze/thaw (rat brain homogenate, 80 ng/mL): 7.85%; Stability (ER %) Autosampler [1]: 4.49%; Stability (ER %) Bench-top [1]: 5.74%; Stability (ER %) Freeze/thaw [1]: 2.46%; Stability (ER %) Autosampler [2]: 4.24%; Stability (ER %) Bench-top [2]: 9.61%; Stability (ER %) Freeze/thaw [2]: 8.61%; Stability (ER %) Autosampler [3]: 3.42%; Stability (ER %) Bench-top [3]: 7.75%; Stability (ER %) Freeze/thaw [3]: 7.99%; Stability (ER %) Autosampler [4]: 3.31%; Stability (ER %) Bench-top [4]: 1.36%; Stability (ER %) Freeze/thaw [4]: 1.82%; Stability (ER %) Autosampler (rat liver homogenate, 30 ng/mL): 5.04%; Stability (ER %) Bench-top (rat liver homogenate, 30 ng/mL): 1.59%; Stability (ER %) Freeze/thaw (rat liver homogenate, 30 ng/mL): 1.52%; Stability (ER %) Autosampler (rat liver homogenate, 80 ng/mL): 2.92%; Stability (ER %) Bench-top (rat liver homogenate, 80 ng/mL): 2.49%; Stability (ER %) Freeze/thaw (rat liver homogenate, 80 ng/mL): 3.24%; Stability (ER %) Autosampler [5]: 4.45%; Stability (ER %) Bench-top [5]: 0.42%; Stability (ER %) Freeze/thaw [5]: 2.39%; Stability (ER %) Autosampler (rat lung homogenate, 30 ng/mL): 4.01%; Stability (ER %) Bench-top (rat lung homogenate, 30 ng/mL): 1.39%; Stability (ER %) Freeze/thaw (rat lung homogenate, 30 ng/mL): 2.68%; Stability (ER %) Autosampler (rat lung homogenate, 80 ng/mL): 4.14%; Stability (ER %) Bench-top (rat lung homogenate, 80 ng/mL): 2.94%; Stability (ER %) Freeze/thaw (rat lung homogenate, 80 ng/mL): 4.23%; Stability (ER %) Autosampler (rat lung homogenate, 200 ng/mL): 3.04%; Stability (ER %) Bench-top (rat lung homogenate, 200 ng/mL): 8.02%; Stability (ER %) Freeze/thaw (rat lung homogenate, 200 ng/mL): 6.65%; Stability (ER %) Autosampler (rat plasma, 30 ng/mL): 10.61%; Stability (ER %) Bench-top (rat plasma, 30 ng/mL): 5.32%; Stability (ER %) Freeze/thaw (rat plasma, 30 ng/mL): 1.26%; Stability (ER %) Autosampler (rat plasma, 80 ng/mL): 14.01%; Stability (ER %) Bench-top (rat plasma, 80 ng/mL): 11.90%; Stability (ER %) Freeze/thaw (rat plasma, 80 ng/mL): 8.67%; Stability (ER %) Autosampler (rat plasma, 200 ng/mL): 3.21%; Stability (ER %) Bench-top (rat plasma, 200 ng/mL): 13.82%; Stability (ER %) Freeze/thaw (rat plasma, 200 ng/mL): 4.45%; Stability (ER %) Autosampler [6]: 3.25%; Stability (ER %) Bench-top [6]: 2.55%; Stability (ER %) Freeze/thaw [6]: 2.72%; Stability (ER %) Autosampler [7]: 2.24%; Stability (ER %) Bench-top [7]: 6.84%; Stability (ER %) Freeze/thaw [7]: 5.52%; Stability (ER %) Autosampler [8]: 3.41%; Stability (ER %) Bench-top [8]: 9.57%; Stability (ER %) Freeze/thaw [8]: 8.51%
